Experimental data from ChEMBL document CHEMBL4732258, “Pyxinol bearing amino acid residues: Easily achievable and promising modulators of P-glycoprotein-mediated multidrug resistance” (Eur J Med Chem, 2021).
Active and inactive are the calls of the source. The rule behind the calls is not given here.

Legend:
[1] = Cytotoxicity against human KBV cells assessed as cell viability at 10 uM incubated for 72 hrs by MTT assay; format: cell-based; conditions: read-out: Activity
KBV [2] = experiment: Reversal of Pgp-mediated paclitaxel resistance in human KBV cells assessed as cell viability at 10 uM in presence of paclitaxel incubated for 72 hrs by MTT assay; format: cell-based
KBV [3] = experiment: Reversal of Pgp-mediated paclitaxel resistance in human KBV cells assessed as cell viability at 5 uM in presence of paclitaxel incubated for 72 hrs by MTT assay; format: cell-based
KBV [4] = experiment: Reversal of Pgp-mediated multidrug resistance in human KBV cells assessed as fold change in paclitaxel IC50 at 5 uM after 72 hrs in presence of paclitaxel by MTT assay relative to control; format: cell-based
KBV [5] = experiment: Reversal of Pgp-mediated multidrug resistance in human KBV cells assessed as fold change in paclitaxel IC50 at 10 uM after 72 hrs in presence of paclitaxel by MTT assay relative to control; format: cell-based
KBV [6] = experiment: Reversal of Pgp-mediated multidrug resistance in human KBV cells assessed as fold change in vincristine IC50 at 10 uM after 72 hrs in presence of vincristine by MTT assay relative to control; format: cell-based
[7] = target: T1, Broad substrate specificity ATP-binding cassette transporter ABCG2 (Homo sapiens, UniProt Q9UNQ0); experiment: Reversal of BCRP-mediated multidrug resistance in human KBV cells assessed as fold change in mitoxantrone IC50 at 10 uM after 72 hrs in presence of mitoxantrone by MTT assay; format: cell-based
T1 sequence (Q9UNQ0 whole entry): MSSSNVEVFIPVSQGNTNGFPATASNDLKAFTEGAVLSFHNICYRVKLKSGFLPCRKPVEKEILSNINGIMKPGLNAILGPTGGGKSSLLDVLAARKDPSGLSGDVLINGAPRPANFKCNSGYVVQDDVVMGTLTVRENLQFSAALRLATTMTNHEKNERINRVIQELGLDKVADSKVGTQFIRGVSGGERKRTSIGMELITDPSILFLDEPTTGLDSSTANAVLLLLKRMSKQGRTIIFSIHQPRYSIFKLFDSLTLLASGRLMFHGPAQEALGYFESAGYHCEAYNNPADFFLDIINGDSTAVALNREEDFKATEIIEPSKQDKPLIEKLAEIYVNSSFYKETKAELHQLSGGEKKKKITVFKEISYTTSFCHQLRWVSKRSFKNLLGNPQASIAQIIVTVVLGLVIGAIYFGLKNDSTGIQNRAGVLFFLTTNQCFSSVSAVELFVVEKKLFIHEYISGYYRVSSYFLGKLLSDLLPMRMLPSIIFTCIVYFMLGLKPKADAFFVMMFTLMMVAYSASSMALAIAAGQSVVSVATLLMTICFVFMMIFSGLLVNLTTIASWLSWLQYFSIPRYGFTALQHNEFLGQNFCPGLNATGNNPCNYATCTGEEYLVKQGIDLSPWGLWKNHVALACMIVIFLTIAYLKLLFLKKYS

Homo sapiens = species on record: Homo sapiens; experiment: Modulation of Pgp-ATPase activity (unknown origin) assessed as fold increase in ATP consumption at 0.5 mM preincubated for 5 mins followed by Mg-ATP addition and measured after 45 mins by microplate reader analysis; conditions: filed as modulator, time 50.0 min
[8] = Induction of cell cycle arrest in human KBV cells assessed as accumulation at sub-G1 phase at 10 uM after 24 hrs by PI/RNaseA staining based flow cytometric analysis (reference value: 4.26 +/- 0.35%); format: functional
[9] = Induction of cell cycle arrest in human KBV cells assessed as accumulation at G1/G0 phase at 10 uM after 24 hrs by PI/RNaseA staining based flow cytometric analysis (reference value: 49.09 +/- 0.35%); format: functional
[10] = Induction of cell cycle arrest in human KBV cells assessed as accumulation at S phase at 10 uM after 24 hrs by PI/RNaseA staining based flow cytometric analysis (reference value: 11.32 +/- 0.04%); format: functional
[11] = Induction of cell cycle arrest in human KBV cells assessed as accumulation at G2/M phase at 10 uM after 24 hrs by PI/RNaseA staining based flow cytometric analysis (reference value: 33.81 +/- 0.57%); format: functional
[12] = Induction of cell cycle arrest in human KBV cells assessed as accumulation at sub-G1 phase at 10 uM after 24 hrs in presence of 0.1 uM paclitaxel by PI/RNaseA staining based flow cytometric analysis (reference value: 5.83 +/- 0.31%); format: functional
[13] = Induction of cell cycle arrest in human KBV cells assessed as accumulation at G1/G0 phase at 10 uM after 24 hrs in presence of 0.1 uM paclitaxel by PI/RNaseA staining based flow cytometric analysis (reference value: 50.74 +/- 0.07%); format: functional
[14] = Induction of cell cycle arrest in human KBV cells assessed as accumulation at S phase at 10 uM after 24 hrs in presence of 0.1 uM paclitaxel by PI/RNaseA staining based flow cytometric analysis (reference value: 13.06 +/- 0.39%); format: functional
[15] = Induction of cell cycle arrest in human KBV cells assessed as accumulation at G2/M phase at 10 uM after 24 hrs in presence of 0.1 uM paclitaxel by PI/RNaseA staining based flow cytometric analysis (reference value: 28.03 +/- 0.95%); format: functional
KBV [16] = experiment: Reversal of Pgp-mediated multidrug resistance in human KBV cells assessed as fold change in vincristine IC50 at 5 uM after 72 hrs in presence of vincristine by MTT assay relative to control; format: cell-based
[17] = target: T1, Broad substrate specificity ATP-binding cassette transporter ABCG2; experiment: Reversal of BCRP-mediated multidrug resistance in human KBV cells assessed as fold change in mitoxantrone IC50 at 5 uM after 72 hrs in presence of mitoxantrone by MTT assay; format: cell-based
[18] = Antitumor activity against human KBV cells xenografted model assessed as reduction in tumor weight at 10 mg/kg in presence of 30 mg/kg paclitaxel; format: functional
KBV [19] = experiment: Reversal of P-gp mediated drug efflux in human KBV cells assessed as increase in intracellular Rhodamine123 accumulation preincubated for 2 hrs followed by Rh123 addition measured after 0.5 hr by flow cytometry analysis; format: cell-based; conditions: filed as modulator, dose 2-10 µM, time 2.5 hrs
KBV [20] = experiment: Effect on Pgp protein expression in human KBV cells at 5 to 10 uM after 24 hrs by Western blot analysis; format: functional, cell-based; conditions: dose 5-10 µM
[21] = Induction of cell cycle arrest in human KBV cells assessed as accumulation at sub-G1 phase at 5 uM after 24 hrs in presence of 0.1 uM paclitaxel by PI/RNaseA staining based flow cytometric analysis (reference value: 5.83 +/- 0.31%); format: functional
[22] = Induction of cell cycle arrest in human KBV cells assessed as accumulation at G1/G0 phase at 5 uM after 24 hrs in presence of 0.1 uM paclitaxel by PI/RNaseA staining based flow cytometric analysis (reference value: 50.74 +/- 0.07%); format: functional
[23] = Induction of cell cycle arrest in human KBV cells assessed as accumulation at S phase at 5 uM after 24 hrs in presence of 0.1 uM paclitaxel by PI/RNaseA staining based flow cytometric analysis (reference value: 13.06 +/- 0.39%); format: functional
[24] = Induction of cell cycle arrest in human KBV cells assessed as accumulation at G2/M phase at 5 uM after 24 hrs in presence of 0.1 uM paclitaxel by PI/RNaseA staining based flow cytometric analysis (reference value: 28.03 +/- 0.95%); format: functional

CSCC[C@H](N)C(=O)O[C@H]1CC[C@]2(C)[C@H]3C[C@@H](O)[C@@H]4[C@@H]([C@]5(C)CC[C@@H](C(C)(C)O)O5)CC[C@@]4(C)[C@]3(C)CC[C@H]2C1(C)C
viability at 72 h, 10 µM [1]: 100%
Activity (KBV [2]; filed as modulator): 31%
Activity (KBV [3]): 56%
fold change (FC) (KBV [4]): 0.4
fold change (FC) (KBV [5]): 6

COc1ccc(CCN(C)CCCC(C#N)(c2ccc(OC)c(OC)c2)C(C)C)cc1OC (stereo not drawn)
Activity (KBV [2]; filed as modulator): 28%
fold change (FC) (KBV [5]): 40
fold change (FC) (KBV [6]): 16
fold change (FC) [7]: 1
fold change (FC) (Homo sapiens): 5.6
Activity [8]: 4.69%
Activity [9]: 51.35%
Activity [10]: 11.44%
Activity [11]: 31.36%
Activity [12]: 18.47%
Activity [13]: 11.1%
Activity [14]: 11.57%
Activity [15]: 57.42%

CSCC[C@H](N)C(=O)O[C@H]1CC[C@]2(C)[C@H]3C[C@@H](O)[C@@H]4[C@@H]([C@]5(C)CC[C@H](C(C)(C)O)O5)CC[C@@]4(C)[C@]3(C)CC[C@H]2C1(C)C
viability at 72 h, 10 µM [1]: 90%
Activity (KBV [2]; filed as modulator): 23%
Activity (KBV [3]; filed as modulator): 26%
fold change (FC) (KBV [4]): 17
fold change (FC) (KBV [5]): 34

CSCC[C@H](NC(=O)OC(C)(C)C)C(=O)O[C@H]1CC[C@]2(C)[C@H]3C[C@@H](O)[C@@H]4[C@@H]([C@]5(C)CC[C@@H](C(C)(C)O)O5)CC[C@@]4(C)[C@]3(C)CC[C@H]2C1(C)C
viability at 72 h, 10 µM [1]: 88%
Activity (KBV [2]; filed as modulator): 16%
Activity (KBV [3]; filed as modulator): 19%
fold change (FC) (KBV [4]): 18
fold change (FC) (KBV [5]): 51
fold change (FC) (KBV [16]): 5
fold change (FC) (KBV [6]): 14
fold change (FC) [17]: 0.8
fold change (FC) [7]: 1.2

CC(C)(C)OC(=O)NCCCCCC(=O)N[C@H]1CC[C@]2(C)[C@H]3C[C@@H](O)[C@@H]4[C@@H]([C@]5(C)CC[C@H](C(C)(C)O)O5)CC[C@@]4(C)[C@]3(C)CC[C@H]2C1(C)C
inhibition in vivo at 10 mg/kg [18]: 53.7%

CSCC[C@H](NC(=O)OC(C)(C)C)C(=O)O[C@H]1CC[C@]2(C)[C@H]3C[C@@H](O)[C@@H]4[C@@H]([C@]5(C)CC[C@H](C(C)(C)O)O5)CC[C@@]4(C)[C@]3(C)CC[C@H]2C1(C)C
viability at 72 h, 10 µM [1]: 120%
Activity (KBV [2]; filed as modulator): 21%
Activity (KBV [3]; filed as modulator): 26%
fold change (FC) (KBV [4]): 25
fold change (FC) (KBV [5]): 59
fold change (FC) (KBV [16]): 3
fold change (FC) (KBV [6]): 8
Activity (KBV [19]): Dose-dependent effect
fold change (FC) [17]: 1.4
fold change (FC) [7]: 1.6
fold change (FC) (Homo sapiens): 6
Activity (KBV [20]): inactive
Activity [8]: 3.31%
Activity [9]: 42.81%
Activity [10]: 13.67%
Activity [11]: 38.79%
Activity [21]: 19.8%
Activity [22]: 14%
Activity [23]: 12.94%
Activity [24]: 51.66%
Activity [12]: 22.66%
Activity [13]: 13.75%
Activity [14]: 11.1%
Activity [15]: 51.06%

CC(C)(C)OC(=O)N[C@@H](Cc1ccccc1)C(=O)O[C@H]1CC[C@]2(C)[C@H]3C[C@@H](O)[C@@H]4[C@@H]([C@]5(C)CC[C@@H](C(C)(C)O)O5)CC[C@@]4(C)[C@]3(C)CC[C@H]2C1(C)C
viability at 72 h, 10 µM [1]: 17%
Activity (KBV [2]; filed as modulator): 16%
Activity (KBV [3]; filed as modulator): 17%

CC(C)(O)[C@@H]1CC[C@@](C)([C@H]2CC[C@]3(C)[C@@H]2[C@H](O)C[C@@H]2[C@@]4(C)CC[C@H](OC(=O)[C@@H](N)Cc5ccccc5)C(C)(C)[C@@H]4CC[C@]23C)O1
viability at 72 h, 10 µM [1]: 100%
Activity (KBV [2]; filed as modulator): 29%
Activity (KBV [3]; filed as modulator): 35%

CC(C)(C)OC(=O)N[C@@H](Cc1cn(C(=O)OC(C)(C)C)c2ccccc12)C(=O)O[C@H]1CC[C@]2(C)[C@H]3C[C@@H](O)[C@@H]4[C@@H]([C@]5(C)CC[C@H](C(C)(C)O)O5)CC[C@@]4(C)[C@]3(C)CC[C@H]2C1(C)C
viability at 72 h, 10 µM [1]: 132%
Activity (KBV [2]): 161%
Activity (KBV [3]): 165%

CC(C)(O)[C@H]1CC[C@@](C)([C@H]2CC[C@]3(C)[C@@H]2[C@H](O)C[C@@H]2[C@@]4(C)CC[C@H](OC(=O)[C@@H](N)CCC(=O)O)C(C)(C)[C@@H]4CC[C@]23C)O1
viability at 72 h, 10 µM [1]: 106%
Activity (KBV [2]): 72%
Activity (KBV [3]): 105%

CC(C)(O)[C@H]1CC[C@@](C)([C@H]2CC[C@]3(C)[C@@H]2[C@H](O)C[C@@H]2[C@@]4(C)CC[C@H](OC(=O)[C@@H](N)CCCCN)C(C)(C)[C@@H]4CC[C@]23C)O1
viability at 72 h, 10 µM [1]: 45%
Activity (KBV [2]; filed as modulator): 29%
Activity (KBV [3]): 85%

CC(C)[C@H](N)C(=O)O[C@H]1CC[C@]2(C)[C@H]3C[C@@H](O)[C@@H]4[C@@H]([C@]5(C)CC[C@@H](C(C)(C)O)O5)CC[C@@]4(C)[C@]3(C)CC[C@H]2C1(C)C
viability at 72 h, 10 µM [1]: 96%
Activity (KBV [2]; filed as modulator): 25%
Activity (KBV [3]; filed as modulator): 49%

CC(C)(O)[C@@H]1CC[C@@](C)([C@H]2CC[C@]3(C)[C@@H]2[C@H](O)C[C@@H]2[C@@]4(C)CC[C@H](OC(=O)[C@@H](N)Cc5ccc(O)cc5)C(C)(C)[C@@H]4CC[C@]23C)O1
viability at 72 h, 10 µM [1]: 97%
Activity (KBV [2]; filed as modulator): 35%
Activity (KBV [3]): 87%
